Here are results for 20 molecules from PubChem BioAssay (NCI).

Molecules are shown by their SMILES.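 Compound exposure: 48 hours, 5 concentrations, 96-well plates. TGI marks complete inhibition of growth.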 Bounds are passed on as bounds.

Common to all, as to assay: growth of human tumour cells (NCI), 48 h
In assay [1] the test system is CCRF-CEM leukemia.
The subject of assay [2] is COLO 205 colon.
Assay [3] has as its system HCT-116 colon.
The test system of assay [4] is MALME-3M melanoma.
Assay [5] concerns MOLT-4 leukemia.
The test system of assay [6] is NCI-H460 lung.
Assay [7] deals with OVCAR-4 ovarian.
Assay [8] relates to OVCAR-8 ovarian.
In assay [9] the test system is RXF 393 renal.
Assay [10] relates to SK-OV-3 ovarian.
For assay [11], the system named is SW-620 colon.
Assay [12] concerns TK-10 renal.
The subject of assay [13] is UO-31 renal.
Assay [14] has as its system SN12C renal.
Assay [15] concerns SR leukemia.
In assay [16] the test system is MCF7 breast.

On to `COC1=CC(=O)C2C(C1=O)C(c1ccc(OC)c(OC)c1)[C@H]2C` (stereo not given in full), for which the TGI in assay [1] was 62.4 µM; in [2], 36.9 µM; in assay [3], 31.9 µM; in [4], 35.3 µM; in assay [5], 31.3 µM; in assay [6], greater than 100 µM. Moreover, the TGI was 30.6 µM in assay [7]; 42.5 µM in assay [8]; 35.2 µM in [9]; greater than 100 µM in [10]; 40.6 µM in [11]; 33.3 µM in [12]. In assay [13], the TGI was greater than 100 µM.
Take `CC/C(SC)=[N+](\C)[O-]`: the TGI was 23.2 µM in [1]; greater than 66.9 µM in assay [2]; greater than 68.4 µM in [3]; greater than 100 µM in assay [4]; 79.3 µM in [5]; greater than 100 µM in [6]. In addition, the TGI was greater than 100 µM in [7]; greater than 100 µM in [8]; greater than 100 µM in assay [9]; greater than 100 µM in assay [10]; greater than 100 µM in [14]; 50 µM in assay [15]. Also, the TGI in assay [11], in assay [12] and in [13] was greater than 100 µM in each case.
Take `NC(=O)OCc1c(-c2ccccc2)nn(-c2ccccc2)c1COC(N)=O`: the TGI in assay [2], in assay [3], in assay [4], in assay [16], in assay [7] and in [8] was greater than 100 µM throughout. Also, the TGI in assay [9], in [14], in [11], in assay [12] and in assay [13] was greater than 100 µM in each case.
On to `Cc1ccc(C2SCC(=O)N2NC(=O)c2ccncc2)s1` (stereo not given), for which the TGI in assay [1], in [2], in [3], in assay [4], in assay [16] and in assay [5] was greater than 100 µM in each case. Also, the TGI in assay [7], in assay [8], in assay [9], in [10], in assay [14] and in assay [15] was greater than 100 µM in each case. Also, the TGI in [11], in assay [12] and in [13] was greater than 100 µM in each case.
With `CCN(CC)CCCCC1CCN(CC(=O)N2c3cc(Cl)ccc3NC(=O)CC2C)CC1` (stereo not given), the TGI in assay [1], in assay [2], in assay [3], in assay [4], in assay [5] and in [6] was greater than 100 µM each time. Further, the TGI in assay [7], in assay [10], in assay [14], in assay [15], in assay [11] and in assay [13] was greater than 100 µM in each case.
Turning to `CN1N=C2c3ccccc3CC[C@H]2C1c1cccc(O)c1` (stereo not given in full), the TGI in assay [1] was greater than 100 µM; in assay [2] it was greater than 100 µM; in [3], greater than 100 µM; in assay [4], 5.01 µM; in assay [5], greater than 100 µM; in assay [6], greater than 100 µM. In addition, the TGI in assay [7], in assay [8], in assay [9], in assay [10], in assay [14] and in assay [15] was greater than 100 µM each time. Also, the TGI in [11], in assay [12] and in assay [13] was greater than 100 µM each time.
With `O=C1NC2C(CCO)CC=C[C@H]2c2cc3c(cc21)OCO3` (stereo not given in full), the TGI in assay [1], in [2], in assay [3], in [4], in [5] and in assay [6] was greater than 100 µM throughout. Also, the TGI in assay [8], in [9], in [10], in assay [14], in assay [15] and in assay [11] was greater than 100 µM in each case. Further, the TGI in assay [12] and in assay [13] was greater than 100 µM each time.
`C/C(=N/NC(N)=S)C(CN(C)C)C(C1=C(O)c2ccccc2OC1)c1ccccc1` (stereo not given): the TGI in assay [1], in assay [2], in [3], in [4], in [5] and in assay [6] was greater than 100 µM each time. Further, the TGI in [7], in assay [8], in assay [9], in assay [10], in [14] and in assay [15] was greater than 100 µM each time. Moreover, the TGI in assay [11], in assay [12] and in assay [13] was greater than 100 µM in each case.
In the case of `Nc1ncnc2c1ncn2C1CC(OC2CCCCO2)C(CO)O1` (stereo not given), the TGI in [1], in [2], in assay [3], in [4], in [5] and in assay [6] was greater than 100 µM each time. For the same molecule, the TGI in assay [7], in [8], in [9], in assay [10], in [14] and in assay [15] was greater than 100 µM in each case. The TGI in assay [11], in [12] and in assay [13] was greater than 100 µM in each case.
As for `COc1ccc2c(c1)OC(c1ccccc1O)CC2=O` (stereo not given), the TGI in assay [1], in assay [3], in assay [4], in assay [5], in assay [6] and in assay [7] was greater than 100 µM throughout. In addition, the TGI in assay [8] is greater than 100 µM; in assay [14] it was greater than 100 µM; in assay [11], greater than 100 µM; in [12], greater than 100 µM; in assay [13], 96.8 µM.
Take `CC1=C2CN(C(=O)OCC(C)C)CCC2C2=C(C(=O)c3ccccc3C2=O)C1C` (stereo not given): the TGI in assay [1], in [2], in assay [4], in [16], in assay [5] and in [7] was greater than 10 µM in each case. The TGI in assay [8], in assay [9], in assay [10], in assay [14], in assay [15] and in assay [11] was greater than 10 µM each time. Besides, the TGI in [12] was greater than 10 µM.
For `COC(=O)N/N=C(/Cc1occc(=O)c1O)C(=O)Nc1ccc([N+](=O)[O-])cc1[N+](=O)[O-]`, the TGI in assay [1], in assay [2], in [3], in [4], in assay [5] and in assay [6] was greater than 100 µM in each case. Also, the TGI in [7], in assay [8], in assay [9], in [10], in assay [14] and in [15] was greater than 100 µM each time. The TGI in [11], in assay [12] and in assay [13] was greater than 100 µM in each case.
`CCOC(=O)Nn1c(C)cc(C(=O)OC)c1C`: the TGI in [1], in assay [2], in [3], in assay [4], in assay [5] and in assay [6] was greater than 100 µM throughout. Further, the TGI in assay [8], in assay [9], in assay [10], in assay [14], in assay [11] and in [12] was greater than 100 µM each time. Besides, in [13], the TGI was greater than 100 µM.
Consider `CC(C)C1COC(c2ccc3ccccc3c2-c2c(O[Si](C)(C)C(C)(C)C)ccc3ccccc23)=N1` (stereo not given), for which the TGI worked out at 35.5 µM in [1]; 33.6 µM in [2]; 32.9 µM in [4]; 32 µM in assay [5]; 37.4 µM in assay [6]; 36.1 µM in [7]. Moreover, the TGI in [8] was 35.3 µM; in [9], 34.7 µM; in assay [10] it was 34.5 µM; in assay [14], 33.2 µM; in assay [11] it was 35.1 µM; in [12], 33 µM. Besides, the TGI in [13] was found to be 28.2 µM.
Take `CC(C)(C)C(=O)/C=C/c1cccc(Oc2ccccc2)c1`: the TGI in assay [1] is 31 µM; in [3] it was 31 µM; in assay [4], 36.2 µM; in assay [5], 57.1 µM; in assay [6], 32.5 µM; in assay [8] it was 27.8 µM. Besides, the TGI in assay [9] is 30 µM; in [10], greater than 100 µM; in assay [14], 27.4 µM; in [15], greater than 100 µM; in assay [13], 28.8 µM.
For `Cc1cc(=O)[nH]c(NNC(C#N)c2ccco2)n1` (stereo not given), the TGI in assay [1], in [2], in [3], in [4], in assay [5] and in assay [6] was greater than 100 µM in each case. Besides, the TGI in assay [7], in [8], in assay [9], in assay [10], in assay [14] and in assay [15] was greater than 100 µM each time. Besides, the TGI in assay [11], in assay [12] and in [13] was greater than 100 µM in each case.
On to `COc1ccc(C2S/C(=C\c3ccccc3)C(=O)N2NC(=O)Cc2ccccc2)cc1` (stereo not given), for which the TGI in [1], in [2], in assay [3], in [4], in [5] and in [6] was greater than 100 µM in each case. The TGI in [7], in assay [8], in assay [9], in assay [10], in assay [14] and in [15] was greater than 100 µM throughout. The TGI in [11], in assay [12] and in assay [13] was greater than 100 µM in each case.
As for `CCCc1c(C(=O)OCC)[nH]c(C(=O)CCC(=O)c2[nH]c(C(=O)OCC)c(CCC)c2C(=O)OCC)c1C(=O)OCC`, the TGI in [1], in [2], in [3], in assay [4], in assay [5] and in assay [6] was greater than 100 µM in each case. The TGI in assay [7], in assay [8], in assay [9], in assay [10], in assay [14] and in assay [15] was greater than 100 µM in each case. Moreover, the TGI in assay [11], in [12] and in assay [13] was greater than 100 µM each time.
Regarding `O=C(N/N=C(\c1nc2ccc(Cl)cc2[nH]c1=O)C(O)c1ccccc1Cl)c1ccncc1` (stereo not given), the TGI in assay [1], in assay [2], in assay [3], in assay [4], in assay [5] and in [6] was greater than 100 µM throughout. Moreover, the TGI in [7], in assay [9], in [10], in assay [11], in assay [12] and in [13] was greater than 100 µM in each case.
For `CN(C)c1nc(=NCc2cccnc2)ss1`, the TGI in assay [1], in [2], in [4], in assay [5], in [7] and in assay [8] was greater than 10 µM throughout. Besides, the TGI in assay [9], in [10], in assay [14], in [15], in assay [11] and in assay [12] was greater than 10 µM throughout.
